In the NIST ThermoML archive (doi:10.1021/je049867t):
± gives the expanded uncertainty stated by the source.

Key:
[1] = Liquid
[2] = refractive index (Na D-line) (dimensionless); conditions: 293.15 K; 101.33 kPa; Liquid; Standard Abbe refractometry
[3] = 308.15 K, Ebulliometric method (Recirculating still)
[4] = 318.15 K, Ebulliometric method (Recirculating still)
[5] = 323.15 K, Ebulliometric method (Recirculating still)

Row | SMILES | vapor or sublimation pressure ([1]; 298.02 K) [kPa] | vapor or sublimation pressure ([1]; 306.98 K) [kPa] | vapor or sublimation pressure ([1]; 318.15 K) [kPa] | vapor or sublimation pressure ([1]; 319.2 K) [kPa] | vapor or sublimation pressure ([1]; 327.9 K) [kPa] | vapor or sublimation pressure ([1]; 334.78 K) [kPa] | vapor or sublimation pressure ([1]; 340.52 K) [kPa] | vapor or sublimation pressure ([1]; 345.48 K) [kPa] | vapor or sublimation pressure ([1]; 349.85 K) [kPa] | vapor or sublimation pressure ([1]; 353.81 K) [kPa] | vapor or sublimation pressure ([1]; 355.64 K) [kPa] | refractive index [2] | vapor or sublimation pressure [1, 3] [kPa] | vapor or sublimation pressure [1, 4] [kPa] | vapor or sublimation pressure [1, 5] [kPa]
1 | CCC(C)(C)OC [2-methoxy-2-methylbutane] | 10 ± 0.09 | 15 ± 0.1 | 23.99 ± 0.19 | 25 ± 0.13 | 35 ± 0.15 | 45 ± 0.18 | 55 ± 0.21 | 65 ± 0.24 | 75 ± 0.27 | 85 ± 0.3 | 90 ± 0.32 | 1.3862 ± 0.0009 |  |  | 
2 | COC(C)(C)C [2-methoxy-2-methylpropane] |  |  |  |  |  |  |  |  |  |  |  | 1.3698 ± 0.0007 | 49.48 ± 0.15 | 71.41 ± 0.17 | 84.91 ± 0.18
3 | Cc1ccccc1 [toluene] |  |  |  |  |  |  |  |  |  |  |  | 1.4965 ± 0.0007 | 6.18 ± 0.1 | 9.88 ± 0.1 | 12.28 ± 0.1
